Source: US4348393A, “N-Aryl oxazolidinones, oxazolidinethiones, pyrrolidinones, pyrrolidines and thiazolidinones” (Delalande S.A., priority 1978, dated 1982)

Tests used:
[1] = tested on: ptosis observed one hour after reserpine; assay: Test B: antagonism of reserpine-induced ptosis in mice; type: in vivo; settings: Mus musculus, 1 h, po, antagonism of ptosis one hour after reserpine 2 mg/kg intravenous, read-out: Test B ED 50
Description: Test B: Antagonism with respect to the ptosis observed one hour after an intravenous injection (2 mg/kg) of reserpine given to mice, following the protocol described by C.

[2] = tested on: generalized trembling caused by dl-5-hydroxytryptophane; assay: Test A: potentiation in mice of generalized trembling caused by dl-5-hydroxytryptophane; type: in vivo; settings: Mus musculus, po, mice, potentiation of trembling by dl-5-hydroxytryptophane 200 mg/kg interperitoneal, read-out: Test A ED 50
Description: Test A: Potentiation in mice of generalized trembling caused by an interperitoneal injection (200 mg/kg) of dl-5-hydroxytryptophane, following the protocol described by C. GOURET and G. RAYNAUD in J. Pharmacol. (Paris), (1974), 5, 231.

SMILES	ED50 [1]	ED50 [2]
COCC1CN(c2ccc(OCC3CCC(=O)CC3)cc2)C(=O)O1 (stereo not shown) [compound 188]	0.4 mg/kg	0.3 mg/kg
CC(C)OCC1CN(c2ccc(OCc3cccc([N+](=O)[O-])c3)cc2)C(=O)O1 (stereo not shown) [compound 62]	2.4 mg/kg	3.6 mg/kg
CNCC1CN(c2ccc(OCCC(C)C)cc2)C(=O)O1 (stereo not shown) [compound 79]	2 mg/kg	6.2 mg/kg
OCC1CN(c2ccc(OCc3ccc(Cl)cc3)cc2)C(=S)O1 (stereo not shown) [compound 95]	35 mg/kg	50 mg/kg
CCCCCCCCC(=O)OCC1CN(c2ccc(OCc3cccc([N+](=O)[O-])c3)cc2)C(=O)O1 (stereo not shown) [compound 42]	2 mg/kg	1.25 mg/kg
COCC1CN(c2ccc(OCc3ccccc3)cc2)C(=O)O1 (stereo not shown) [compound 57]	9 mg/kg	7.8 mg/kg
CNCC1CN(c2ccc(OCc3ccc(F)cc3)cc2)C(=O)O1 (stereo not shown) [compound 175]	9.6 mg/kg	5.8 mg/kg
CCCCOc1ccc(N2CC(CN)OC2=O)cc1 (stereo not shown) [compound 170]	16 mg/kg	12.5 mg/kg
CCOCC1CN(c2ccc(OCc3cccc(Cl)c3)cc2)C(=O)O1 (stereo not shown) [compound 155]	3 mg/kg	9.6 mg/kg
N#CCCOc1ccc(N2CC(COC(=O)C3CCCCC3)OC2=O)cc1 (stereo not shown) [compound 8]	7.2 mg/kg	2.2 mg/kg
CCCCOc1ccc(N2CC(COCC)OC2=O)cc1 (stereo not shown) [compound 109]	1 mg/kg	10 mg/kg
OCC1CN(c2ccc(OCc3cccc(F)c3)cc2)C(=S)O1 (stereo not shown) [compound 177]	15.5 mg/kg	8 mg/kg
CCCCOc1ccc(N2CC(COC(C)C)OC2=O)cc1 (stereo not shown) [compound 47, para-n-butyloxy phenyl-3 isopropyloxymethyl-5 oxazolidinone-2]	36 mg/kg	18 mg/kg
NCC1CN(c2ccc(OCc3cccc(Cl)c3)cc2)C(=O)O1 (stereo not shown) [compound 82]	12 mg/kg	9.6 mg/kg
CCCCOc1ccc(N2CC(CNC)OC2=O)cc1 (stereo not shown) [compound 74]	6.2 mg/kg	4 mg/kg
CC(=O)OCC1CN(c2ccc(OCc3ccccc3)cc2)C(=O)O1 (stereo not shown) [compound 23]	12.5 mg/kg	12 mg/kg
CC(C)OCC1CN(c2ccc(OCC3CCCC3)cc2)C(=O)O1 (stereo not shown) [compound 50]	15 mg/kg	17.5 mg/kg
CCC(=O)OCC1CN(c2ccc(OCc3cccc(Cl)c3)cc2)C(=O)O1 (stereo not shown) [compound 31]	3.6 mg/kg	6.5 mg/kg

SMILES	ED50 [1]	ED50 [2]
CCCCCCCCC(=O)OCC1CN(c2ccc(OCC3CCCC3)cc2)C(=O)O1 (stereo not shown) [compound 19]	3.5 mg/kg	5.5 mg/kg
CC(=O)OCC1CN(c2ccc(OCC3CCCCC3)cc2)C(=S)O1 (stereo not shown) [compound 115]	4.8 mg/kg	3.8 mg/kg
COCC1CN(c2ccc(OCc3cccc(C(F)(F)F)c3)cc2)C(=O)O1 (stereo not shown) [compound 66]	6 mg/kg	4.7 mg/kg
O=C1OC(COC2CCCCC2)CN1c1ccc(OCC2CCCC2)cc1 (stereo not shown) [compound 51]	50 mg/kg	27 mg/kg
COCC1CN(c2ccc(/C=C\c3ccccc3)cc2)C(=O)O1 (stereo not shown) [compound 193]	30 mg/kg	19 mg/kg
CN(C)CC1CN(c2ccc(OCCC#N)cc2)C(=O)O1 (stereo not shown) [compound 171]	25 mg/kg	19.5 mg/kg
CCCOCC1CN(c2ccc(OCC3CCCC3)cc2)C(=O)O1 (stereo not shown) [compound 143]	12 mg/kg	12.5 mg/kg
CC(=O)OCC1CN(c2ccc(OCc3cccc(F)c3)cc2)C(=O)O1 (stereo not shown) [compound 130]	9.6 mg/kg	6.2 mg/kg
CC(C)COCC1CN(c2ccc(OCc3cccc([N+](=O)[O-])c3)cc2)C(=O)O1 (stereo not shown) [compound 157]	6.2 mg/kg	4.7 mg/kg
CCCCCCCCC(=O)OCC1CN(c2ccc(OCC3CCCCC3)cc2)C(=O)O1 (stereo not shown) [compound 122]	6.2 mg/kg	6.8 mg/kg
COCOCC1CN(c2ccc(OCc3cccc([N+](=O)[O-])c3)cc2)C(=O)O1 (stereo not shown) [compound 73]	0.8 mg/kg	0.6 mg/kg
CCC(=O)OCC1CN(c2ccc(OCc3cccc([N+](=O)[O-])c3)cc2)C(=O)O1 (stereo not shown) [compound 37]	2 mg/kg	1.9 mg/kg
COCC1CN(c2ccc(OCC3CCCCCC3)cc2)C(=O)O1 (stereo not shown) [compound 150]	0.5 mg/kg	0.7 mg/kg
COCC1CN(c2ccc(OCC3CCCCC3)cc2)C(=O)O1 (stereo not shown) [compound 55]	1.1 mg/kg	0.6 mg/kg
CC(C)CCOc1ccc(N2CC(COC(=O)C3CCCCC3)OC2=O)cc1 (stereo not shown) [compound 129]	12 mg/kg	7.5 mg/kg
CCCCCCCCC(=O)OCC1CN(c2ccc(OCCC(C)C)cc2)C(=O)O1 (stereo not shown) [compound 126]	1.8 mg/kg	4.4 mg/kg
COCC1CN(c2ccc(OCc3cc(Cl)cc([N+](=O)[O-])c3)cc2)C(=O)O1 (stereo not shown) [compound 156]	0.3 mg/kg	0.47 mg/kg
